Assay results: ChEMBL document CHEMBL1136839, “3,4-Disubstituted isothiazoles: novel potent inhibitors of VEGF receptors 1 and 2” (Bioorg Med Chem Lett, 2009)

What was measured:
[1] = target: Insulin receptor (Homo sapiens) (UniProt P06213); experiment: Inhibition of InR at 10 uM by HTRF assay
[2] = target: Receptor tyrosine-protein kinase erbB-2 (Homo sapiens) (UniProt P04626); experiment: Inhibition of ErbB2 at 10 uM by HTRF assay
[3] = Inhibition of Bcr-Abl T315 mutant at 10 uM by HTRF assay
[4] = target: Glycogen synthase kinase-3 beta (Homo sapiens) (UniProt P49841); experiment: Inhibition of GSK3-beta at 10 uM by HTRF assay
[5] = target: Bcr/Abl fusion protein (Homo sapiens) (UniProt P00519+P11274); experiment: Inhibition of bcr-Abl at 10 uM by HTRF assay; assay type: protein assay
[6] = target: Macrophage-stimulating protein receptor (Homo sapiens) (UniProt Q04912); experiment: Inhibition of Ron at 10 uM by HTRF assay
[7] = target: Epidermal growth factor receptor (Homo sapiens) (UniProt P00533); experiment: Inhibition of EGFR at 10 uM by HTRF assay
[8] = Inhibition of PKA at 10 uM by HTRF assay
[9] = target: Proto-oncogene tyrosine-protein kinase Src (Homo sapiens) (UniProt P12931); experiment: Inhibition of Src at 10 uM by HTRF assay
[10] = target: Insulin-like growth factor 1 receptor (Homo sapiens) (UniProt P08069); experiment: Inhibition of IGF1R at 10 uM by HTRF assay
[11] = target: Cyclin-dependent kinase 2 (Homo sapiens) (UniProt P24941); experiment: Inhibition of CDK2 at 10 uM by HTRF assay
[12] = target: Cyclin-dependent kinase 1 (Homo sapiens) (UniProt P06493); experiment: Inhibition of CDK1 at 10 uM by HTRF assay
[13] = target: Fibroblast growth factor receptor 1 (Homo sapiens) (UniProt P11362); experiment: Inhibition of FGFR1 at 10 uM by HTRF assay
[14] = target: Hepatocyte growth factor receptor (Homo sapiens) (UniProt P08581); experiment: Inhibition of cMET at 10 uM by HTRF assay
[15] = target: Receptor-type tyrosine-protein kinase FLT3 (Homo sapiens) (UniProt P36888); experiment: Inhibition of Flt3 at 10 uM by HTRF assay

Measured: inhibition

Chain of Fibroblast growth factor receptor 1 (Homo sapiens) (P11362 22-822 limits assumed): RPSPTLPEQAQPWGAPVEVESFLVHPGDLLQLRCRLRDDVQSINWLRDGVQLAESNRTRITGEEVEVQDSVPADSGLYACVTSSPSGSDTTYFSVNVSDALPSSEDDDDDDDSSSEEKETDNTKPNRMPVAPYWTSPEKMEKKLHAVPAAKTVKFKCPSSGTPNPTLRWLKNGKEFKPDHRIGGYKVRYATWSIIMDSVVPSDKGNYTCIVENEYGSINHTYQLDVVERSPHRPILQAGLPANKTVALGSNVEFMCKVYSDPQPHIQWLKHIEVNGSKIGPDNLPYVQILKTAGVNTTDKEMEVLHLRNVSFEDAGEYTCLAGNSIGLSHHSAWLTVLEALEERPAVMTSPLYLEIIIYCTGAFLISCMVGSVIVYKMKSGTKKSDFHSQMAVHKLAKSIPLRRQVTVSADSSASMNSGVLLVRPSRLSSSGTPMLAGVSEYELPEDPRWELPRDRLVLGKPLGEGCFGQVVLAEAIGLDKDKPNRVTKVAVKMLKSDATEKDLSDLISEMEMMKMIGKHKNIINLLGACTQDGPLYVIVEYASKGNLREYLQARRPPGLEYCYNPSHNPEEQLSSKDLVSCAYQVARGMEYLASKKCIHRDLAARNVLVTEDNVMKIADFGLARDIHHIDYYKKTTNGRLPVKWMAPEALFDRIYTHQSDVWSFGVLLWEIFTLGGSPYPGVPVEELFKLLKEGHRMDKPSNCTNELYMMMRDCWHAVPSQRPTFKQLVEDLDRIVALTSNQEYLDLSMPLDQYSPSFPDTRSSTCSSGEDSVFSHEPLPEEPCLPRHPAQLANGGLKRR
Chain of Epidermal growth factor receptor (Homo sapiens) (P00533 whole entry): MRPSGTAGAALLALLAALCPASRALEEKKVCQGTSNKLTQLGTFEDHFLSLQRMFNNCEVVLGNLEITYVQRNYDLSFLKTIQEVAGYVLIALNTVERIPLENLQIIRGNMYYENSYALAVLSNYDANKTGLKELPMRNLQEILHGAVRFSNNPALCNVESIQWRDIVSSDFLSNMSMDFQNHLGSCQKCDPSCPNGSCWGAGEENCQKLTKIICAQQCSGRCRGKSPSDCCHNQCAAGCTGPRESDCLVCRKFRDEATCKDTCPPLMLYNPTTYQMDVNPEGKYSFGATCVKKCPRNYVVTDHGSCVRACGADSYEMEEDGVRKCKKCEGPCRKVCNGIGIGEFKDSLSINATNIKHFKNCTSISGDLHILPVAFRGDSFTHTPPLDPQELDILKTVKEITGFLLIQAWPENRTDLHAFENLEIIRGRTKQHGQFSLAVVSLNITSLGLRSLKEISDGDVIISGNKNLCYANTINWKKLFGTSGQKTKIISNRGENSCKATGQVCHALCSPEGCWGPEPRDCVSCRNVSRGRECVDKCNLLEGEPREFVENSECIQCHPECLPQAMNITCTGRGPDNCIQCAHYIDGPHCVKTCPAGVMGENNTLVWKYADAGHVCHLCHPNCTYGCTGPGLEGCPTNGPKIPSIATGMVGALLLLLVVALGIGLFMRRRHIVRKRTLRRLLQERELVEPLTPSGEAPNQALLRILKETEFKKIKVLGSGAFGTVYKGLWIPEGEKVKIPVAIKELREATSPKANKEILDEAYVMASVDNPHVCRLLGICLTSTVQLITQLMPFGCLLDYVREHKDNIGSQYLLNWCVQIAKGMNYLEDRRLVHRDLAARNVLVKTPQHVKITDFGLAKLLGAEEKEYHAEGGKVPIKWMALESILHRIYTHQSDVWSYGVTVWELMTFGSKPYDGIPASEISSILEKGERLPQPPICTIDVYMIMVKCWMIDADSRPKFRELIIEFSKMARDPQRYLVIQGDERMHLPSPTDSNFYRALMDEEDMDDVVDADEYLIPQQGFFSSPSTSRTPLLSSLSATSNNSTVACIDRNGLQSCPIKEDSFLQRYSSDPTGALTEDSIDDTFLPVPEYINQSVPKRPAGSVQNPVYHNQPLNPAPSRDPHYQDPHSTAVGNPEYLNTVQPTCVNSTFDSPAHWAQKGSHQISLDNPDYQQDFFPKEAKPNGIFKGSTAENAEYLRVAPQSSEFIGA
Chain of Glycogen synthase kinase-3 beta (Homo sapiens) (P49841 whole entry, looked up, the tested form may be a part): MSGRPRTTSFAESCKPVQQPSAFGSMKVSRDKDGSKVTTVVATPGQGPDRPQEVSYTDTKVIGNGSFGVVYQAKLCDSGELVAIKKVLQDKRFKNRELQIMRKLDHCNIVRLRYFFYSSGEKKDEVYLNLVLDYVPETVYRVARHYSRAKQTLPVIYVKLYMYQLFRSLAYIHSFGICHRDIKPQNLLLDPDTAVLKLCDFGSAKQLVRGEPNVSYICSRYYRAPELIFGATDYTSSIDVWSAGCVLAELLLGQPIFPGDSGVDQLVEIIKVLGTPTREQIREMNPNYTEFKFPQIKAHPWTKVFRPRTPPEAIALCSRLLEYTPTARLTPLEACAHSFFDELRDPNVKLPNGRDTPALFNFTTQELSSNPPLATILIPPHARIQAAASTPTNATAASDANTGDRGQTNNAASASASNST
Chain of Proto-oncogene tyrosine-protein kinase Src (Homo sapiens) (P12931 2-536 limits assumed): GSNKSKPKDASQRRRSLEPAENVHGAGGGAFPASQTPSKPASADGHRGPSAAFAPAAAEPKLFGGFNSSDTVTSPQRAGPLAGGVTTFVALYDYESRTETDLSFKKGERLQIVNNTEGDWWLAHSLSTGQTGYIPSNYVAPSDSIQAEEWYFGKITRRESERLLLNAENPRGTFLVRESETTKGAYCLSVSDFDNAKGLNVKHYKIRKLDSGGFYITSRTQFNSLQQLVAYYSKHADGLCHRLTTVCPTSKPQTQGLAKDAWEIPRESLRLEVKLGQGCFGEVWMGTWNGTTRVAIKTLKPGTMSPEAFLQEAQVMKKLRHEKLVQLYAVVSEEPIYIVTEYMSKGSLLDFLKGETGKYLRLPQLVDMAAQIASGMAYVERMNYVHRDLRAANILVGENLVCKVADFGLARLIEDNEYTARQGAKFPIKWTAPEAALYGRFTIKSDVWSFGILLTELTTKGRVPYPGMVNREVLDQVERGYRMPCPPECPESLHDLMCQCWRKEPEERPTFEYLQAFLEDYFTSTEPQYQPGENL
Chain of Cyclin-dependent kinase 1 (Homo sapiens) (P06493 whole entry, looked up): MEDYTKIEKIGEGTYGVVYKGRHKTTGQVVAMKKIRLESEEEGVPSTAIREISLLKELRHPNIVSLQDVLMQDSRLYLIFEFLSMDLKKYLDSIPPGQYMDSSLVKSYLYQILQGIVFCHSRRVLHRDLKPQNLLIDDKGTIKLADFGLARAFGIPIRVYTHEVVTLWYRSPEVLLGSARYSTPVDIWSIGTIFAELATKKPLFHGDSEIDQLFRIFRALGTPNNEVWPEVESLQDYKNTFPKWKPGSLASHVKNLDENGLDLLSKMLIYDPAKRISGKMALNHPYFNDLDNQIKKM
Chain of Insulin receptor (Homo sapiens) (P06213 28-758 limits assumed): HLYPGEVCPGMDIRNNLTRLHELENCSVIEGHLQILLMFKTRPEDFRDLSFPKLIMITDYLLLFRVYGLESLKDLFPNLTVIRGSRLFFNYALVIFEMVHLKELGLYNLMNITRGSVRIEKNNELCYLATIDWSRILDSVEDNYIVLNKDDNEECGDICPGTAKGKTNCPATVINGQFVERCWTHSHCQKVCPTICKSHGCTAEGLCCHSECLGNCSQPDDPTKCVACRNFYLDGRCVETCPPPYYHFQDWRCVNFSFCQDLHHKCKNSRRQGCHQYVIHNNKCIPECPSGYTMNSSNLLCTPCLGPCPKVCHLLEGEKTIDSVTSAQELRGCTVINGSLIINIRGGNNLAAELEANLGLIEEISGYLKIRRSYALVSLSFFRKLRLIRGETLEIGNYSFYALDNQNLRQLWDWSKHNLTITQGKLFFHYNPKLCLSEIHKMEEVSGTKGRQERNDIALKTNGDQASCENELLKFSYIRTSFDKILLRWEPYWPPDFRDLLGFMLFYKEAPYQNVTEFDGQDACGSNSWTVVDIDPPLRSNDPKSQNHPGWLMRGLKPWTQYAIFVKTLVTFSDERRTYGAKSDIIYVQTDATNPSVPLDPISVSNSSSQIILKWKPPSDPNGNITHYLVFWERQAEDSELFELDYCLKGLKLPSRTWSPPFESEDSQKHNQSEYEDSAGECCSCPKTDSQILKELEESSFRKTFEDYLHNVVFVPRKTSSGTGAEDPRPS
Chain of Insulin receptor (Homo sapiens) (P06213 763-1382 limits assumed): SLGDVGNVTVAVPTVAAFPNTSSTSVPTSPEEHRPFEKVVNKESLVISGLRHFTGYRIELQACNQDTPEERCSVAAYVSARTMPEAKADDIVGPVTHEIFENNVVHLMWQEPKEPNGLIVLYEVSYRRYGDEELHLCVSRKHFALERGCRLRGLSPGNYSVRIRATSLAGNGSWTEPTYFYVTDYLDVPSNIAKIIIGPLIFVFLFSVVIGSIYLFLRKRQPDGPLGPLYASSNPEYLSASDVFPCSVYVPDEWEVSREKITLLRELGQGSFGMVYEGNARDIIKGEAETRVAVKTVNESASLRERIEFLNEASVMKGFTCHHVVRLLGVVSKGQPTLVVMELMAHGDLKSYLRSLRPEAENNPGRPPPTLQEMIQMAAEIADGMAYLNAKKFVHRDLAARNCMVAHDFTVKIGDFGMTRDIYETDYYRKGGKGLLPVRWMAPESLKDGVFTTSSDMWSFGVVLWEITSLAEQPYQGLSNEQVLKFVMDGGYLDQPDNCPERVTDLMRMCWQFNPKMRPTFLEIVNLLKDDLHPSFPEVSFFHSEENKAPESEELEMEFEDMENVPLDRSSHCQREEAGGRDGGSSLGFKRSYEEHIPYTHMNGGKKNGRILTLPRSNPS

O=C(Nc1cccc(C(F)(F)F)c1)c1nscc1NCc1ccc(F)c(F)c1
< 30%: [1] | [2] | [3] | [4] | [5] | [6] | [7] | [8] | [9] | [10] | [11] | [12] | [13] | [14] | [15]

O=C(Nc1ccc(Cl)cc1)c1nscc1NCc1ccncc1
< 30%: [1] | [2] | [3] | [4] | [5] | [6] | [7] | [8] | [9] | [10] | [11] | [12] | [13] | [14] | [15]

O=C(Nc1ccc(C(F)(F)F)cc1)c1nscc1NCc1ccncc1
< 30%: [1] | [2] | [3] | [4] | [5] | [6] | [7] | [8] | [9] | [10] | [11] | [12] | [13] | [14] | [15]

O=C(Nc1ccc(C(F)(F)F)cc1)c1nscc1NCc1ccccn1
< 30%: [1] | [2] | [3] | [4] | [5] | [6] | [7] | [8] | [9] | [10] | [11] | [12] | [13] | [14] | [15]

O=C(Nc1cccc(Br)c1)c1nscc1NCc1cnoc1
< 30%: [1] | [2] | [3] | [4] | [5] | [6] | [7] | [8] | [9] | [10] | [11] | [12] | [13] | [14] | [15]

O=C(Nc1ccccc1Br)c1nscc1NCc1ccncc1
< 30%: [1] | [2] | [3] | [4] | [5] | [6] | [7] | [8] | [9] | [10] | [11] | [12] | [13] | [14] | [15]

O=C(Nc1cccc(C(F)(F)F)c1)c1nscc1NCc1cccnc1
< 30%: [1] | [2] | [3] | [4] | [5] | [6] | [7] | [8] | [9] | [10] | [11] | [12] | [13] | [14] | [15]

O=C(Nc1ccc(OC(F)(F)F)cc1)c1nscc1NCc1ccncc1
< 30%: [1] | [2] | [3] | [4] | [5] | [6] | [7] | [8] | [9] | [10] | [11] | [12] | [13] | [14] | [15]

O=C(Nc1ccc2[nH]ncc2c1)c1nscc1NCc1ccncc1
< 30%: [1] | [2] | [3] | [4] | [5] | [6] | [7] | [8] | [9] | [10] | [11] | [12] | [13] | [14] | [15]

O=C(Nc1ccc(C(F)(F)F)cc1)c1nscc1NCc1cccnc1
< 30%: [1] | [2] | [3] | [4] | [5] | [6] | [7] | [8] | [9] | [10] | [11] | [12] | [13] | [14] | [15]

Cc1ccc(NC(=O)c2nscc2NCc2ccncc2)c(F)c1
< 30%: [1] | [2] | [3] | [4] | [5] | [6] | [7] | [8] | [9] | [10] | [11] | [12] | [13] | [14] | [15]

Cc1cc(NC(=O)c2nscc2NCc2ccncc2)ccc1C(F)(F)F
< 30%: [1] | [2] | [3] | [4] | [5] | [6] | [7] | [8] | [9] | [10] | [11] | [12] | [13] | [14] | [15]

CC(C)(C)c1ccc(NC(=O)c2nscc2NCc2ccncc2)cc1
< 30%: [1] | [2] | [3] | [4] | [5] | [6] | [7] | [8] | [9] | [10] | [11] | [12] | [13] | [14] | [15]
